Tests used:
[1] = tested on: ANGIOTENSIN II VASOPRESSOR RESPONSE; assay: AII Challenge: blockade of angiotensin II vasopressor response in conscious SHR; assay type: in vivo, rat (Conscious Male Okamoto-Aoki SHR); settings: SHR n=2, 3 mg/kg i.v.
Excerpt: By administering a compound of this invention to a rat, and then challenging with angiotensin II, a blockage of the vasopressor response is realized.
Conscious Male Okamoto-Aoki SHR, 16-20 weeks old, weighing approximately 330 g are purchased from Charles River Labs (Wilmington, Mass.). Conscious rats are restrained in a supine position with elastic tape. The area at the base of the tail is locally anesthetized by subcutaneous infiltration with 2% procaine. The ventral caudal artery and vein are isolated, and a cannula made of polyethylene (PE) 10-20 tubing (fused together by heat) is passed into the lower abdominal aorta and vena cava, respectively. The cannula is secured, heparinized (1,000 I.U./ml), sealed and the wound is closed. The animals are placed in plastic restraining cages in an upright position. The cannula is attached to a Statham P23Db pressure transducer, and pulsatile blood pressure is recorded to 10-15 minutes with a Gould Brush recorder. (Chan et al., (Drug Development Res., 18:75-94, 1989).
Angiotensin II (human sequence, Sigma Chem. Co., St. Louis, MO) of 0.05 and 0.1 ug/kg i.v. is injected into all rats (predosing response). Then a test compound, vehicle or a known angiotensin II antagonist is administered i.v., i.p. or orally to each set of rats. The two doses of angiotensin II are given to each rat again at 30, 60, 90, 120, 180, 240 and 300 minutes post dosing the compound or vehicle. The vasopressor response of angiotensin II is measured for the increase in systolic blood pressure in mmHg. The percentage of antagonism or blockade of the vasopressor response of angiotensin II by a compound is calculated using the vasopressor response (increase in systolic blood pressure) of angiotensin II of each rat predosing the compound as 100%. A compound is considered active if at 30 mg/kg i.v. it antagonized at least 50% of the response.

Angiotensin II Receptor = target: T1, Angiotensin II Receptor (Bos taurus, UniProt P25104); assay: Receptor Binding Assay: Binding of [^125 I](Sar^1,Ile^8)AngII to beef adrenal cortex membranes; settings: 60 min, room temperature
T1 construct: The brownish tissue forming the adrenal cortex is scraped off and finely minced with scissors before homogenization; from tissue; host or cells: beef adrenal cortex, microsomal membranes (100,000×g pellet); fresh glands from a local slaughter house (Maxwell-Cohen)
T1 sequence (P25104 1-359): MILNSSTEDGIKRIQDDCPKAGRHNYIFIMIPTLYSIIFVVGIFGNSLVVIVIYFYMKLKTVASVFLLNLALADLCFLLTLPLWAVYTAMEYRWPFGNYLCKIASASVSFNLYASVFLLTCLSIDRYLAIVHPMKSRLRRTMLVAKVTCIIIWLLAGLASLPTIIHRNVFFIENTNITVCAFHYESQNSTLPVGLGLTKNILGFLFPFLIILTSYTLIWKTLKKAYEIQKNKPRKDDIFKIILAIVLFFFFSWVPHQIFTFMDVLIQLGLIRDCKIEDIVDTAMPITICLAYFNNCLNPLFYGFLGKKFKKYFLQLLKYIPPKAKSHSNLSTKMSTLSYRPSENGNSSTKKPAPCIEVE
Excerpt: Beef adrenals are obtained from a local slaughter house (Maxwell-Cohen). [^125 […]. 2200 Ci/mmole, is purchased from Dupont (NEN®, Boston, Mass.). All unlabeled AngII analogs, Dimethylsulfoxide (DMSO), nucleotides, bovine serum albumin (BSA) are purchased from Sigma Chemical Co., St. Louis, Mo. U.S.A. […] Approximately sixteen (16) to twenty (20) beef adrenal glands are processed as follows: fresh adrenal glands received on crushed ice are cleaned of fatty tissues and the tough membranes encapsulating the glands are removed and discarded. The brownish tissue forming the adrenal cortex is scraped off and finely minced with scissors before homogenization. Care is taken to avoid contamination with medullary tissue during dissection. The scraped cortices are suspended in twenty volumes of an ice-cold buffer medium consisting of 10 mM Tris.HCl (pH 7.4 at 22° C.) and containing 1.0 mM EDTA and 0.2M sucrose. Unless otherwise indicated, all subsequent operations are done at 4° C. […] The homogenate is centrifuged first at low speed (3,000×g) for 10 minutes. […] This P2 pellet is discarded and the liquid phase is carefully decanted off in clean centrifuge tubes and recentrifuged at high speed (100,000×g) for 60 minutes. The translucent final pellet is harvested and combined in a small volume (20-50.0 ml) of 50.0 mM Tris.HCl buffer, pH 7.2. A 100 ul aliquot is withdrawn and the protein content of the preparation is determined by the Lowry's method (Lowry, O. H., Rosebrough, […]. and Randall, R. J., Protein measurement with Folin phenol reagent. J. Biol. Chem., […], 265-275, 1951). The pelleted membrane is reconstituted in 50.0 mM Tris.HCl buffer containing 0.1 mM of phenylmethylsulfonyl fluoride (PMSF) to give approximately a protein concentration of 2.5 mg per ml of tissue suspension. […] Receptor Binding Assay: […] In competition studies, experimental compounds are diluted in dimethylsulfoxide (DMSO) and added in 20 ul to wells before the introduction of tissue membranes. […] Assays are performed in triplicate. The wells are left undisturbed for 60 minutes at room temperature. Following incubation, all wells are harvested at once with a Brandel® Harvester especially designed for a 96 well plate (Brandel® Biomedical Research & Development Labs. Inc., Gaithersburg, Md., U.S.A.). The filter discs are washed with 10×1.0 ml of cold 0.9% NaCl to remove unbound ligand. Presoaking the filter sheet in 0.1% polyethyleneimine in normal saline (PEI/Saline) greatly reduces the radioactivity retained by the filter blanks. This method is routinely used. The filters are removed from the filter grid and counted in a Parkard® Cobra Gamma Counter for 1 minutes. (Packard Instrument Co., Downers Grove, Ill, U.S.A.). The binding data are analyzed by the non-linear interactive "LUNDON-1" program (LUNDON SOFTWARE Inc., Cleveland, Ohio U.S.A.).

[2] = AII 0.05 mcg/kg IV, 30 min post dose
[3] = AII 0.05 mcg/kg IV, 60 min post dose
[4] = AII 0.05 mcg/kg IV, 90 min post dose
[5] = AII 0.05 mcg/kg IV, 120 min post dose
[6] = AII 0.05 mcg/kg IV, 180 min post dose
[7] = AII 0.05 mcg/kg IV, 240 min post dose
[8] = AII 0.05 mcg/kg IV, 300 min post dose
[9] = AII 0.1 mcg/kg IV, 30 min post dose
[10] = AII 0.1 mcg/kg IV, 60 min post dose
[11] = AII 0.1 mcg/kg IV, 90 min post dose
[12] = AII 0.1 mcg/kg IV, 120 min post dose
[13] = AII 0.1 mcg/kg IV, 180 min post dose
[14] = AII 0.1 mcg/kg IV, 240 min post dose
[15] = AII 0.1 mcg/kg IV, 300 min post dose

| SMILES | % Inhibition of AII vasopressor response [1, 2] [%] | Average Change (systolic blood pressure response to AII) [1, 2] [mmHg] | % Inhibition of AII vasopressor response [1, 3] [%] | Average Change (systolic blood pressure response to AII) [1, 3] [mmHg] | % Inhibition of AII vasopressor response [1, 4] [%] | Average Change (systolic blood pressure response to AII) [1, 4] [mmHg] | % Inhibition of AII vasopressor response [1, 5] [%] | Average Change (systolic blood pressure response to AII) [1, 5] [mmHg] | % Inhibition of AII vasopressor response [1, 6] [%] | Average Change (systolic blood pressure response to AII) [1, 6] [mmHg] | % Inhibition of AII vasopressor response [1, 7] [%] | Average Change (systolic blood pressure response to AII) [1, 7] [mmHg] | % Inhibition of AII vasopressor response [1, 8] [%] | Average Change (systolic blood pressure response to AII) [1, 8] [mmHg] | % Inhibition of AII vasopressor response [1, 9] [%] | Average Change (systolic blood pressure response to AII) [1, 9] [mmHg] | % Inhibition of AII vasopressor response [1, 10] [%] | Average Change (systolic blood pressure response to AII) [1, 10] [mmHg] | % Inhibition of AII vasopressor response [1, 11] [%] | Average Change (systolic blood pressure response to AII) [1, 11] [mmHg] | other results |
| --- | --- | --- | --- | --- | --- | --- | --- | --- | --- | --- | --- | --- | --- | --- | --- | --- | --- | --- | --- | --- | --- |
| CCCCc1nc2ccc(C(O)C3CCCS3(=O)=O)cc2c(=O)n1Cc1ccc(-c2ccccc2-c2nn[nH]n2)cc1 (single isomer, unassigned; isomer 2) [Example 16, 2-Butyl-6-[hydroxy(tetrahydro-2-thienyl)methyl-3-[2'-(1H-tetrazol-5-yl)[1,1'biphenyl]-4-yl]methyl]-4(3H)-quinazolinone S, S-dioxide, isomer 2] | 72 | 12.5 | 30 | 31.5 | 61 | 17.5 | 71 | 13 | 39 | 27.5 | 39 | 27.5 | 33 | 30 | 43 | 20 | 64 | 12.5 | 36 | 22.5 | % Inhibition of AII vasopressor response [1, 12]: 50%; Average Change (systolic blood pressure response to AII) [1, 12]: 17.5 mmHg; % Inhibition of AII vasopressor response [1, 13]: 14%; Average Change (systolic blood pressure response to AII) [1, 13]: 30 mmHg; % Inhibition of AII vasopressor response [1, 14]: 0%; Average Change (systolic blood pressure response to AII) [1, 14]: 35 mmHg; % Inhibition of AII vasopressor response [1, 15]: -21%; Average Change (systolic blood pressure response to AII) [1, 15]: 42.5 mmHg; IC50 (Angiotensin II Receptor): 110 nM |
| CCCCc1nc2ccc(C(C)(O)C3CCN(C)C3=O)cc2c(=O)n1Cc1ccc(-c2ccccc2-c2nn[nH]n2)cc1 (single isomer, unassigned; isomer 2) [Example 48, 2-Butyl-6-1-hydroxy-1(1-methyl-2-oxo-3-pyrrolidinyl)ethyl]-3-[[2'-(1H-tetrazol-5-yl)[1,1'-biphenyl]-4-yl]methyl-4(3H)-quinazolinone isomer 2] | 92 | 3.5 | 89 | 5 | 83 | 7.5 | 97 | 1.5 | 69 | 13.5 | 68 | 14 | 71 | 12.5 | 95 | 25 | 100 | 0 | 95 | 2.5 | % Inhibition of AII vasopressor response [1, 12]: 84%; Average Change (systolic blood pressure response to AII) [1, 12]: 8.5 mmHg; % Inhibition of AII vasopressor response [1, 13]: 57%; Average Change (systolic blood pressure response to AII) [1, 13]: 22.5 mmHg; % Inhibition of AII vasopressor response [1, 14]: 52%; % Inhibition of AII vasopressor response [1, 15]: 57%; Average Change (systolic blood pressure response to AII) [1, 15]: 22.5 mmHg; IC50 (Angiotensin II Receptor): 43 nM |
| CCCCc1nc2ccc(C(C)(O)C3CCCN(C)C3=O)cc2c(=O)n1Cc1ccc(-c2ccccc2-c2nn[nH]n2)cc1 (single isomer, unassigned; isomer 2) [Example 53, 2-Butyl-6-[1-hydroxy(1-methyl-2-oxo-3-piperidinyl)ethyl]-3-[[2'-(1H-tetrazol-5-yl)[1,1'-biphenyl]-4-yl]methyl]-4(3H)-quinazolinone isomer 2] | 89 | 5 | 89 | 5 | 58 | 20 | 58 | 20 | 37 | 30 | 58 | 20 | 53 | 22.5 | 76 | 12.5 | 61 | 20 | 76 | 12.5 | % Inhibition of AII vasopressor response [1, 12]: 61%; Average Change (systolic blood pressure response to AII) [1, 12]: 20 mmHg; % Inhibition of AII vasopressor response [1, 13]: 42%; Average Change (systolic blood pressure response to AII) [1, 13]: 30 mmHg; % Inhibition of AII vasopressor response [1, 14]: 43%; Average Change (systolic blood pressure response to AII) [1, 14]: 29.5 mmHg; % Inhibition of AII vasopressor response [1, 15]: 17%; Average Change (systolic blood pressure response to AII) [1, 15]: 42.5 mmHg; IC50 (Angiotensin II Receptor): 54 nM |

Source: patent US5288720A, “Angiotensin II receptor blocking 2,3,6 substituted quinazolinones” (American Cyanamid Company, priority 1993, dated 1994)
